Measurements published in a melting point compilation (Tetko et al.; mined from patent text by program, amines drawn as free bases though some values may be those of a salt).

Compared with `CCCc1c(OCCCCCC(=O)c2cc(OC)c(OC)c(C(C)C)c2)ccc(C(=O)O)c1O`, `CCCC(=O)c1ccc(C(CC(=O)Nc2cc(C(N)=O)ccc2C(C)(C)C)CC(C)C)c(OC)c1` (stereo not given) is higher in melting point: 113 to 115 °C for the first, 189 to 190 °C for the second.

Compared with `O=C1CC(=Cc2c[nH]c3ccccc23)C(=O)N1Cc1cc(C(F)(F)F)cc(C(F)(F)F)c1`, `N[C@@H](Cc1ccc(F)cc1)[C@H](O)c1ccc(C(F)(F)F)cc1` (racemic) is higher in melting point: 68 to 69 °C for the first, 130 to 131 °C for the second.

Compared with `N#Cc1cn(-c2c(Cl)cc(C(F)(F)F)cc2Cl)nc1[N+](=O)[O-]`, `Cn1c(C(F)(F)F)c(C#N)c2cc(Cl)ccc21` is higher in melting point: 163 to 165 °C for the first, 166 to 168 °C for the second.

Compared with `CC(C)(C)OC(=O)N1CCN(c2ccc(C(=O)CSc3ccnc4ccccc34)cc2)CC1`, `O=C(O)c1ccc(NCCCCCCOc2ccccc2)cc1` is higher in melting point: 153 to 154 °C for the first, 168 to 170 °C for the second.

First: CCCOc1ccc(Nc2c([N+](=O)[O-])ccc(Cl)c2C(=O)O)cc1
Second: CC(=O)CCc1ccc(C(=O)c2ccc(Cl)cc2)cc1
The melting point of the first is higher: 194 to 196 °C for the first, 91 to 92 °C for the second.

Compared with `CCC(OC)c1oc(C)cc(=O)c1OCc1ccccc1` (stereo not given), `COc1ccc(C=C(c2ccc(OCc3ccccc3)cc2)N(C)C)cc1` is lower in melting point: 63 to 65 °C for the first, 60 °C for the second.

Compared with `COC1(c2ccc(OC(C)=O)cc2)Sc2ccccc2N(C)C1=O` (stereo not given), `N#CC(=C1CSc2ccccc2N1)c1ccc(Cl)cc1` is lower in melting point: 144 to 146 °C for the first, 137 to 139 °C for the second.

First: CNc1cc(-n2cc(C(=O)O)c(=O)c3cc(F)c(NC)c(C)c32)c(F)cc1F
Second: CCOC(=O)C(NC(=O)Nc1ccccc1Cl)(c1nc(OC)cc(OC)n1)C(C)C (stereo not given)
The melting point of the first is higher: 220 to 222 °C for the first, 84 to 87 °C for the second.

First: CSc1ccc(CC(=O)O)cc1Cl
Second: Cc1c(O)c(=O)ccn1CC(=O)O
The melting point of the first is lower: 106 to 108 °C for the first, > 230 °C for the second.

Compared with `CCCCCCCCCC(CCCCCCCCC)N1C(=O)c2ccc3c4cccc5cccc(c6ccc(c2c36)C1=O)c54`, `O=c1nc(-c2cccc(S(=O)(=O)CCCc3ccccc3)n2)sc2ccccc12` is higher in melting point: 143 to 144 °C for the first, 150 to 151 °C for the second.

First: COc1cccc(-c2cnn(-c3cccc(C(=O)O)c3)c2)c1
Second: c1ccc(-c2cn3c(n2)Cc2ccccc2C3)cc1
The melting point of the first is lower: 157 to 158 °C for the first, 195 to 197 °C for the second.

First: Cc1cc(C(O)(C(F)(F)F)C(F)(F)F)ccc1O
Second: COc1ccc(F)c(O)c1
The melting point of the first is higher: 89.5 to 90.5 °C for the first, 25 to 26 °C for the second.

Compared with `Cn1cccc1CCNC(=O)C(C#N)C(=O)c1nn(-c2ccccc2)c2c1Cc1ccccc1-2` (stereo not given), `CC(C)c1cccc(C(C)C)c1NS(=O)(=O)CC(=O)NCC(c1ccccc1)C1CCCC1` (stereo not given) is lower in melting point: 288 to 291 °C for the first, 168 to 170 °C for the second.

First: CC(C)(C)OC(=O)N1CCC(C(=O)C2CCCCC2=O)CC1 (stereo not given)
Second: O=P(O)(O)C1=CCCCC1
The melting point of the first is lower: 71 to 72 °C for the first, 128 °C for the second.

First: COc1ccc2[nH]c3c(c2c1)CCN(C(C)=O)C3C (stereo not given)
Second: O=C(CCCl)c1ccc2c3c1CCCC3C(=O)N2 (stereo not given)
The melting point of the first is higher: 198 to 200 °C for the first, 175 to 178 °C for the second.

First: CC(=O)NC[C@@H]1C[C@H]1c1cccn2nc(C)cc12 (relative stereo)
Second: Nc1nc2ccccc2c2c1ncn2C1CC(O)C(CO)O1 (stereo not given)
The melting point of the first is lower: 100 to 101 °C for the first, 232 to 237 °C for the second.

`COCCOc1ccc(CCNC(=O)C=Cc2ccc(OC)cc2OC)cc1S(N)(=O)=O` and `COC(=O)c1cc2cnc(N3CCC[C@H]3CO)nc2n(Cc2ccc(OC)c(Cl)c2)c1=O` cannot be ordered by melting point: 175 to 178 °C for the first, 175 to 176 °C for the second.

First: Cc1cc(NC(=O)OC(C)(C)C)c(N)cc1-c1ccccc1
Second: CC(C)(C)OC(=O)NCCOc1noc2c(C#N)cccc12
The melting point of the first is higher: 122 °C for the first, 91 to 92 °C for the second.

First: CSc1nc(O)c(C(N)=O)c(O)n1
Second: CCOc1cc(Cl)nc(Sc2ccc(C)cc2)n1
The melting point of the first is higher: > 360 °C for the first, 94 to 97 °C for the second.

First: CCN(CC)CCSc1ccc(/C=C/C(=O)OC)cc1[N+](=O)[O-]
Second: CCCN(CCC)C1CCc2cc(NC(=O)C=NO)ccc2C1 (stereo not given)
The melting point of the first is lower: 57.4 to 59.1 °C for the first, 110 to 112 °C for the second.

First: O=C(NS(=O)(=O)c1cc(C(F)(F)F)ccc1Cl)c1cn2cc(Br)cnc2n1
Second: COc1nc(N2CCOCC2)cnc1NS(=O)(=O)c1cccc(Cl)c1Cl
The melting point of the first is higher: > 250 °C for the first, 167 to 168 °C for the second.

First: COc1cc(-c2ccc(N(C)CCN(C)c3ccc(-c4cc(OC)c(N5CCCC5)c(OC)c4)nc3)cn2)cc(OC)c1N1CCCC1
Second: O=C(Nc1cccc(-c2ccnc3c(C(=O)c4cccs4)cnn23)c1)OCCCN1CCS(=O)(=O)CC1
The melting point of the first is higher: 221 to 225 °C for the first, 148 to 159 °C for the second.

First: Cc1cc2ccccc2n1Nc1ccncc1
Second: OC(c1ccc(Cl)cc1)c1cccc(Br)n1 (stereo not given)
The melting point of the first is higher: 75 to 78 °C for the first, 64.5 to 65 °C for the second.

First: CCC(C)Nc1nc2ncnn2c2c1cnc1c2cnn1CC (stereo not given)
Second: CCCn1c(=O)c2[nH]c(/C=C/c3ccccc3Cl)nc2n(CCC)c1=O
The melting point of the first is lower: 228 to 230 °C for the first, 269 to 270 °C for the second.

Compared with `Cc1cnc(-c2cc(=S)ss2)cn1`, `Cc1ccc(S(=O)(=O)NC(=O)Nc2cc(C)c(S(=O)(=O)C[N+](=O)[O-])c(C)c2)cc1` is lower in melting point: 192 °C for the first, 150 to 155 °C for the second.
